According to paper PMC10747822 (Pharmaceutics, 2023):
Where a SMILES comes first, the peptide text is derived from it. [ ]: non-standard residue; d: D form. The star is where a group is joined. NH(4-amidinobenzyl) = N=C(N)c1ccc(CN*)cc1

Columns and labels:
[1] = Bench-top stability in fresh mouse whole blood; format: in vitro ADME; details: minimally diluted, 1 µg/mL (1000 ng/mL), room temperature, sampled at 0, 1 and 2 h, duplicates of 20 µL, UPLC-MS/MS peak area ratio analyte/IS, read-out: calculated half-life in whole blood (converted)
Method: (§1) To investigate peptide stability, minimally diluted plasma or blood samples were generated through the addition of 10 µL of a spiking solution (50,000 ng/mL) to 490 µL of the pertinent biological matrix, resulting in a sample concentration of 1000 ng/mL. Samples (withdrawal of duplicates of 20 µL) were measured immediately after preparation and again after 1 and 2 h. Stability was evaluated via the comparison of peak area ratios of analyte and IS.
To determine which biological matrix is best suited for pharmacokinetic experiments in mice, we investigated the bench-top stability of Ac-[D-Leu]LLLRVK-amba in plasma and fresh whole blood at room temperature over a 2 h period (Figure 3). In plasma, anti-coagulated with Li-heparin, Ac-[D-Leu]LLLRVK-amba was very rapidly degraded.

[2] = Stability in human Li-heparin plasma; format: in vitro ADME; details: pooled human Li-heparin plasma, over at least 2 h; 1000 ng/mL, room temperature; UPLC-MS/MS
Method: as §1
Because an isotopically labeled analog of Ac-[D-Leu]LLLRVK-amba was used as IS, potential variations in (negligible) matrix effects can be efficiently balanced by the IS due to its identical physicochemical characteristics. As a consequence, whole blood from other species is appropriate for calibration and QC preparation. Therefore, whole blood from human donors was used for these purposes, which also helps to reduce animal sacrifice.

[3] = Autosampler (extract) stability; format: physicochemical; details: 24 h in autosampler
Method: Blood samples for calibration and QC purposes were generated through the addition of 25 µL of the pertinent spike solution to 20 µL of blank blood and the subsequent addition of 25 µL of IS solution. Calibration samples were produced at 10, 30, 100, 300, 1000, 3000, and 10,000 ng/mL, and QC samples were produced at concentrations of 10, 30, 3750, and 7500 ng/mL. For study sample processing, 20 µL of each sample was added to 25 µL of IS solution, and 25 µL of ACN/H2O 1/1 + 0.1% FA was added for volume compensation to ensure that sample preparation matches that of study blood samples. For stability reasons, each sample was immediately depleted from proteins by adding 150 µL ACN including 0.1% FA. Samples were processed individually and kept frozen until processing. Subsequently, samples were centrifuged at 13,200× g for 5 min. From the extracts, 10 µL was transferred to 400 µL of ACN/H2O 1/19 + 0.1% FA in wells of a 96-well collection plate (Waters, Milford, MA, USA).
The instrumental setup comprised an Acquity UPLC® Classic System coupled to a Xevo TQ-S triple-stage quadrupole mass spectrometer, which was equipped with a Z-spray heated electrospray ionization (ESI) source (Waters, Milford, MA, USA). […] This yielded an optimal cone voltage of 30 V and collision energy of 10 V. The monitored mass transitions were m/z 343.3 → 436.9 for Ac-[D-Leu]LLLRVK-amba and m/z 345.6 → 440.4 for the IS.
The applicable recommendations for bioanalytical method validation of the FDA and EMA were applied to the validation of the assay. Accuracy was calculated as the percentage of the ratio of the mean of the determined concentrations and the nominal concentration. The acceptance limit is 100 ± 15%, with the exception of the LLOQ where it is 100 ± 20% Q. The assay precision was calculated as the coefficient of variation of the determined sample concentrations. […] Recovery of the whole blood extraction process was calculated from peak areas of QC samples divided by the peak areas obtained from blank blood spiked with the respective amount after processing. […]

[4] = mice; cited from earlier work
Method: The pharmacokinetics of Ac-[D-Leu]LLLRVK-amba was already determined after intravenous bolus injection. With a half-life of only 9 min, this route of administration only produced a short period of potentially effective concentrations. […] Therefore, we aimed at flattening the pharmacokinetic profile with alternate routes of administr ...

[5] = system: LNCaP xenograft; details: cited from earlier work
Excerpt: A major challenge in the development of peptide therapeutics is their susceptibility to enzymatic hydrolysis in biological systems. A primary mechanism of enzymatic degradation of small peptides in the systemic circulation is peptidase-mediated hydrolysis, especially of terminal amino acids by exopeptidase activity. Ac-[D-Leu]LLLRVK-amba comprises stability-enhancing modifications at both peptide termini: a D-amino acid at the N-terminus and an amba-moiety as a decarboxylated arginine variant at the C-terminus. Both modifications impair substrate properties for exopeptidases and thus inc ... || The pharmacokinetics of Ac-[D-Leu]LLLRVK-amba was already determined after intravenous bolus injection. With a half-life of only 9 min, this route of administration only produced a short period of potentially effective concentrations. […] Therefore, we aimed at flattening the pharmacokinetic profile with alternate routes of administr ...

half-life at 1000 ng/mL [1]: 1.39 h | degradation in human Li-heparin plasma [2]: no detectable degradation | autosampler (extract) stability, Accuracy [%] ([3]; QC A): 98.3% | autosampler (extract) stability, Accuracy [%] ([3]; QC B): 99.7% | autosampler (extract) stability, Accuracy [%] ([3]; QC C): 97.5%
SMILES: CC(=O)N[C@H](CC(C)C)C(=O)N[C@@H](CC(C)C)C(=O)N[C@@H](CC(C)C)C(=O)N[C@@H](CC(C)C)C(=O)N[C@@H](CCCNC(=N)N)C(=O)N[C@H](C(=O)N[C@@H](CCCCN)C(=O)NCc1ccc(C(=N)N)cc1)C(C)C [Ac-[D-Leu]LLLRVK-amba] (Ac-[dL]LLLRVK-{NH(4-amidinobenzyl)})
half-life after intravenous bolus injection (previous study) [4]: 9 min | efficacy in mouse xenograft models of prostate cancer ([5]; daily intravenous and intratumoral injection of 2 mg/kg): demonstrated | efficacy in treating prostate cancer in LNCaP xenograft mice, by route ([5]; intratumoral vs intravenous administration): substantially higher when injected intratumorally than when administered intravenously
